Source: patent US20050152911A1, “Norovirus monoclonal antibodies and peptides” (priority 2003, published 2005)
Ends that are not written are not given here.

How the values were obtained:
[1] = system: rSMV binding to CaCo-2 cells; details: serial dilutions of peptide, free and linked to carrier; Example 4 written in present tense
[2] = system: rNV binding to CaCo-2 cells; details: serial dilutions of peptide, free and linked to carrier; Example 4 written in present tense

Row | Sequence | reduction of binding of rSMV to CaCo-2 cells [1] | reduction of binding of rNV to CaCo-2 cells [2]
1 | WLPAPIDKL [peptide 1800, WLPAPIDKL] | reduces binding | 
2 | WTRGQHQL [compound 1732, WTRGQHQL] |  | reduce the binding
3 | WTRGSHNL [peptide 1730, WTRGSHNL] |  | reduce the binding
4 | WTRGGHGL [compound 1731, WTRGGHGL] |  | reduce the binding
